Source: ChEMBL document CHEMBL5338758, “Design, Synthesis, and Bioevaluation of Novel MyD88 Inhibitor c17 against Acute Lung Injury Derived from the Virtual Screen” (J Med Chem, 2023)
The source made the active and inactive calls. The calls are words filed in the database; no cut-off is given here.

Columns and labels:
[1] = target: T1, Myeloid differentiation primary response protein MyD88 (Homo sapiens, UniProt Q99836); assay: Binding affinity to human MyD88 TIR domain assessed as equilibrium dissociation constant by SPR analysis
T1 sequence (Q99836 whole entry, the tested form may be a part): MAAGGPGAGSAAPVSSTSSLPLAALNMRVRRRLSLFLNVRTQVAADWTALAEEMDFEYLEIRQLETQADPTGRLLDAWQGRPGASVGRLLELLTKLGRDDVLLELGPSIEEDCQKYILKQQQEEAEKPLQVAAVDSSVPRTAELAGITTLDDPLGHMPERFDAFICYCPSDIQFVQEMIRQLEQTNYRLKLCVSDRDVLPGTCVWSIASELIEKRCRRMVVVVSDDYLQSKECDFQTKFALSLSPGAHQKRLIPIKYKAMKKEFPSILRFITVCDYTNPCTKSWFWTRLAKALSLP

J774.A1 [2] = assay: Anti-inflammatory activity in mouse J774.A1 cells assessed as inhibition of LPS-induced TNF-alpha production at 10 uM pre-stimulated with LPS for 24 hrs followed by compound addition and measured after 0.5 hrs by ELISA analysis relative to control; format: functional
J774.A1 [3] = assay: Anti-inflammatory activity in mouse J774.A1 cells assessed as inhibition of LPS-induced IL-6 production pre-stimulated with LPS for 24 hrs followed by compound addition and measured after 0.5 hrs by ELISA analysis; format: functional, cell-based
[4] = target: T1, Myeloid differentiation primary response protein MyD88; assay: Binding affinity to human MyD88 TIR domain by SPR analysis; conditions: dose 1.19-5.94 10^-5M
THP-1 = assay: Anti-inflammatory activity in human THP-1 cells assessed as inhibition of LPS-stimulated IL-6 release at 1.25 to 20 uM by ELISA analysis; format: functional, cell-based; conditions: dose 1.25-20 µM
[5] = target: TLR4-MyD88 (Mus musculus) (UniProt Q9QUK6+P22366); assay: Inhibition of MyD88/TLR4 interaction in LPS-stimulated mouse J774.A1 cells at 40 to 80 uM preincubated with compound for 2 hrs followed by LPS stimulation by co-immunoprecipitation analysis; format: cell-based; conditions: dose 40-80 µM
Sequence of TLR4-MyD88 (Mus musculus) (P22366 whole entry, looked up): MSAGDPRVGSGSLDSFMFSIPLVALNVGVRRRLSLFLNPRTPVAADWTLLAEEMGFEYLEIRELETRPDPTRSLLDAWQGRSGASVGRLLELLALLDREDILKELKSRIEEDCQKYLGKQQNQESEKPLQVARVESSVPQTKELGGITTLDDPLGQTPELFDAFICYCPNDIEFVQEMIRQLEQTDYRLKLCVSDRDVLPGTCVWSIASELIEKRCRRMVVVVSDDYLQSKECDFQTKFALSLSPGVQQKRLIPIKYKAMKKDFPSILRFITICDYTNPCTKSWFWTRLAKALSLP
Sequence of TLR4-MyD88 (Mus musculus) (Q9QUK6 whole entry, looked up): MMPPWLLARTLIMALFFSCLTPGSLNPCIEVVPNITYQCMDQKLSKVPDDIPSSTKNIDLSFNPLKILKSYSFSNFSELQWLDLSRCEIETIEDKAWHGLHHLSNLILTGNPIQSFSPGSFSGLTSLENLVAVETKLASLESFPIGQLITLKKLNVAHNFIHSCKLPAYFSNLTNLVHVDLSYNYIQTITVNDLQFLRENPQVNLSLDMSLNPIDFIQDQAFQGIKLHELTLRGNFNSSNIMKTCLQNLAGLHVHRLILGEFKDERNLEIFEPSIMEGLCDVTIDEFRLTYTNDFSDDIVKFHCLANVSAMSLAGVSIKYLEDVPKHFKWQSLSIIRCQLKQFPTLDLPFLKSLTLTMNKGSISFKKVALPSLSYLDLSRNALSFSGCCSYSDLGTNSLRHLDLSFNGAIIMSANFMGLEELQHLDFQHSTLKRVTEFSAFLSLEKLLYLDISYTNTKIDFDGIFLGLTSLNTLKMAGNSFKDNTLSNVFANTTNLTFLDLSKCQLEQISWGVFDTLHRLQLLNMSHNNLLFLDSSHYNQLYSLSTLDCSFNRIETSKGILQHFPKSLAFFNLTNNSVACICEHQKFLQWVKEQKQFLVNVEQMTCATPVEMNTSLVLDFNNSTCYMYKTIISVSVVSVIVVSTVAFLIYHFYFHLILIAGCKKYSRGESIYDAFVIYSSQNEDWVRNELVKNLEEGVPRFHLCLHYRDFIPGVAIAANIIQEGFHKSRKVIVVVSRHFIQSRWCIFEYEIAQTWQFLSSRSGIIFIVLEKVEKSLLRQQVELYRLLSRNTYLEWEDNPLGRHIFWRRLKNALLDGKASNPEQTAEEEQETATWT

J774.A1 [6] = assay: Inhibition of NF-kappaB pathway in LPS-induced mouse J774.A1 cells assessed as reduction in p65 nuclear reactivity preincubated with compound for 2 hrs followed by LPS-stimulation and measured after 15 mins by DAPI staining based immunofluorescence analysis; format: cell-based; conditions: time 135.0 min
[7] = Tmax in Sprague-Dawley rat at 1 mg/kg, iv measured at 5 to 1440 min by LC-MS/MS analysis; format: ADME, organism-based; conditions: in vivo, time 5-1440 min
[8] = Cmax in Sprague-Dawley rat at 1 mg/kg, iv measured at 5 to 1440 min by LC-MS/MS analysis; format: ADME, organism-based; parameters: time upper 1440 min, dose 1 mg/kg, time lower 5 min, route iv; conditions: in vivo
[9] = AUC (0 to t) in Sprague-Dawley rat at 1 mg/kg, iv measured at 5 to 1440 min by LC-MS/MS analysis; format: ADME, organism-based; parameters: time upper 1440 min, time lower 5 min, dose 1 mg/kg, route iv; conditions: in vivo
[10] = Half-life in Sprague-Dawley rat at 10 mg/kg, po measured at 15 to 1440 min by LC-MS/MS analysis; format: ADME, organism-based; conditions: in vivo, time 15-1440 min
[11] = Tmax in Sprague-Dawley rat at 10 mg/kg, po measured at 15 to 1440 min by LC-MS/MS analysis; format: ADME, organism-based; conditions: in vivo, time 15-1440 min
[12] = Cmax in Sprague-Dawley rat at 10 mg/kg, po measured at 15 to 1440 min by LC-MS/MS analysis; format: ADME, organism-based; parameters: time lower 15 min, dose 10 mg/kg, time upper 1440 min, route po; conditions: in vivo
[13] = AUC (0 to t) in Sprague-Dawley rat at 10 mg/kg, po measured at 15 to 1440 min by LC-MS/MS analysis; format: ADME, organism-based; parameters: time 15-1440 min, dose 10 mg/kg, route po; conditions: in vivo
[14] = Oral bioavailability in Sprague-Dawley rat at 10 mg/kg measured at 15 to 1440 min by LC-MS/MS analysis; format: ADME, organism-based; conditions: in vivo, time 15-1440 min
[15] = Drug distribution in Sprague-Dawley rat heart at 1 mg/kg, iv measured after 0.5 hrs by LC-MS/MS analysis; format: ADME, organism-based; conditions: read-out: Drug uptake
[16] = Drug distribution in Sprague-Dawley rat lung at 1 mg/kg, iv measured after 0.5 hrs by LC-MS/MS analysis; format: ADME, organism-based; conditions: read-out: Drug uptake
[17] = Drug distribution in Sprague-Dawley rat liver at 1 mg/kg, iv measured after 0.5 hrs by LC-MS/MS analysis; format: ADME, organism-based; conditions: read-out: Drug uptake
[18] = Drug distribution in Sprague-Dawley rat kidney at 1 mg/kg, iv measured after 2 hrs by LC-MS/MS analysis; format: ADME, organism-based; conditions: read-out: Drug uptake
[19] = Drug distribution in Sprague-Dawley rat liver at 1 mg/kg, iv measured after 2 hrs by LC-MS/MS analysis; format: ADME, organism-based; conditions: read-out: Drug uptake
[20] = Drug distribution in Sprague-Dawley rat heart at 1 mg/kg, iv measured after 4 hrs by LC-MS/MS analysis; format: ADME, organism-based; conditions: read-out: Drug uptake
[21] = Drug distribution in Sprague-Dawley rat lung at 1 mg/kg, iv measured after 4 hrs by LC-MS/MS analysis; format: ADME, organism-based; conditions: read-out: Drug uptake
[22] = Drug distribution in Sprague-Dawley rat liver at 1 mg/kg, iv measured after 4 hrs by LC-MS/MS analysis; format: ADME, organism-based; conditions: read-out: Drug uptake
[23] = Drug distribution in Sprague-Dawley rat spleen at 1 mg/kg, iv measured after 4 hrs by LC-MS/MS analysis; format: ADME, organism-based; conditions: read-out: Drug uptake
[24] = Drug distribution in Sprague-Dawley rat kidney at 10 mg/kg, po measured after 1 hrs by LC-MS/MS analysis; format: ADME, organism-based; conditions: read-out: Drug uptake
[25] = Drug distribution in Sprague-Dawley rat spleen at 10 mg/kg, po measured after 1 hrs by LC-MS/MS analysis; format: ADME, organism-based; conditions: read-out: Drug uptake
[26] = Drug distribution in Sprague-Dawley rat lung at 10 mg/kg, po measured after 3 hrs by LC-MS/MS analysis; format: ADME, organism-based; conditions: read-out: Drug uptake
[27] = Drug distribution in Sprague-Dawley rat kidney at 10 mg/kg, po measured after 8 hrs by LC-MS/MS analysis; format: ADME, organism-based; conditions: read-out: Drug uptake
[28] = Drug distribution in Sprague-Dawley rat brain at 10 mg/kg, po measured after 8 hrs by LC-MS/MS analysis; format: ADME, organism-based; conditions: read-out: Drug uptake
[29] = Drug distribution in Sprague-Dawley rat spleen at 10 mg/kg, po measured after 8 hrs by LC-MS/MS analysis; format: ADME, organism-based; conditions: read-out: Drug uptake
Mus musculus [30] = assay: Anti-inflammatory activity against LPS-induced […] mouse model of […] assessed as alleviation of thickened alveolar septa in lung at 20 mg/kg, po pre-treated with compound for 30 mins followed by LPS stimulation and measured after 6 hrs by H&E staining based histopathological analysis; format: functional, organism-based; conditions: time 6.5 hrs
Mus musculus [31] = assay: Anti-inflammatory activity against LPS-induced […] mouse model of […] assessed as alleviation of tissue destruction in lung at 20 mg/kg, po pre-treated with compound for 30 mins followed by LPS stimulation and measured after 6 hrs by H&E staining based histopathological analysis; format: functional, organism-based; conditions: time 6.5 hrs
Mus musculus [32] = assay: Anti-inflammatory activity against LPS-induced […] mouse model of […] assessed as alleviation of lung edema by measuring decrease in wet/dry weight ratio at 20 mg/kg, po pre-treated with compound for 30 mins followed by LPS stimulation and measured after 6 hrs; format: functional, organism-based; conditions: time 6.5 hrs
Mus musculus [33] = assay: Anti-inflammatory activity against LPS-induced […] mouse model of […] assessed as decrease in IL-6 level in BALF at 20 mg/kg, po pre-treated with compound for 30 mins followed by LPS stimulation and measured after 6 hrs; format: functional, organism-based; conditions: time 6.5 hrs

COc1ccc(NS(=O)(=O)c2ccc(N3CCN(Cc4cccc([N+](=O)[O-])c4)CC3)c([N+](=O)[O-])c2)cn1
Kd [1]: 53 µM
inhibition at 10 µM (J774.A1 [2]): 36.7%
IC50 (J774.A1 [3]): 2.17 µM
Activity [4]: Dose-Dependent Effect
inhibition (THP-1): Active
inhibition [5]: Active
inhibition (J774.A1 [6]): Active
Tmax [7]: 6 min
Cmax [8]: 2770 ng/mL
AUCt [9]: 4795 ng·h/mL
half-life [10]: 420 min
Tmax [11]: 48 min
Cmax [12]: 2210 ng/mL
AUCt [13]: 68163 ng·h/mL
F [14]: 14.2%
concentration at 0.5 h [15]: 52.1 ng/g
concentration at 0.5 h [16]: 98.2 ng/g
concentration at 0.5 h [17]: 166 ng/g
concentration at 2 h [18]: 143 ng/g
concentration at 2 h [19]: 192 ng/g
concentration at 4 h [20]: 275 ng/g
concentration at 4 h [21]: 502 ng/g
concentration at 4 h [22]: 137 ng/g
concentration at 4 h [23]: 113 ng/g
concentration at 1 h [24]: 4.15 ng/g
concentration at 1 h [25]: 78.8 ng/g
concentration at 3 h [26]: 37.1 ng/g
concentration at 8 h [27]: 656 ng/g
concentration at 8 h [28]: 39.9 ng/g
concentration at 8 h [29]: 137 ng/g
Activity (Mus musculus [30]): Active
Activity (Mus musculus [31]): Active
Activity (Mus musculus [32]): Active
Activity (Mus musculus [33]): Active
